{
  "source": "paper PMC9413440",
  "about": "“An Iterative Approach Guides Discovery of the FabI Inhibitor Fabimycin, a Late-Stage Antibiotic Candidate with In Vivo Efficacy against Drug-Resistant Gram-Negative Infections” (ACS Central Science, 2022)",
  "key": {"Pseudomonas aeruginosa": {"test_system": "Pseudomonas aeruginosa", "assay": "MIC, Pseudomonas aeruginosa strains", "type": "cell-based", "procedure": "(§1) II. Materials and Methods for Biological Experiments\n(§2) S. aureus ATCC 29213 and E. coli MG1655 were obtained from the American Type Culture Collection (ATCC). E. coli BW25113 and E. coli JW5503 were obtained from the Keio Collection. AR-bank strains were obtained from the Centers for Disease Control and Prevention and FDA Antibiotic Resistance Isolate Bank.\n(§3) Antimicrobial susceptibility tests\n(§4) Susceptibility testing was performed in biological triplicate, unless noted otherwise, using the micro-dilution broth method as outlined by the Clinical and Laboratory Standards Institute. Bacteria were cultured with cation-adjusted Mueller Hinton broth (Sigma Aldrich, catalogue number: 90922). […]\n(§5) Error bars represent the standard error of the mean of three biological replicates. All compounds evaluated in biological assays were ≥95% pure."}, "[1]": {"test_system": "A. baumannii clinical isolates (n=100)", "assay": "MIC50/MIC90, clinical isolate panel", "type": "cell-based", "details": "Acinetobacter baumannii"}, "HFF-1, A549, HepG2 cells": {"test_system": "HFF-1, A549, HepG2 cells", "details": "72 h", "procedure": "HFF-1 cells (newborn) were obtained from the ATCC. HFF-1 cells were grown in Dulbecco’s Modified Eagle’s minimum essential medium with 15% fetal bovine serum (Gemini Benchmark; catalogue number: 100-106), 100 µg/mL penicillin and 100 µg/mL streptomycin. A549 cells ([…], adult) were obtained from the ATCC. A549 cells were grown in Roswell Park Memorial Institute (RPMI) media with 100 µg/mL penicillin and 10% fetal bovine serum (FBS). HepG2 cells were authenticated by the University of Arizona Genetics Core using an autosomal STR profile. HepG2 cells were grown in Dulbecco’s Modified Eagle’s minimum essential medium with 10% fetal bovine serum. All cells were cultured at 37 °C under a 5% CO2 environment. Cell lines were authenticated by a commercial vendor and inspected visually in house. Cell lines were not tested for Mycoplasma contamination. The media was prepared by the University of Illinois School of Chemical Sciences Cell Media Facility.\nH. sapiens HFF-1, A549, and HepG2 cells were seeded (3,000-6,000 cells/well) in a 96-well plate (Greiner Bio-One;"}, "[2]": {"test_system": "E. coli MG1655 FabI mutants", "assay": "MIC of fabimycin-resistant mutants", "type": "cell-based", "details": "Escherichia coli", "procedure": "as §1, §2, §3, §4, §5\n(§6) Selection of resistant mutants\n(§7) Resistant mutants were generated using the large inoculum method. Briefly, S. aureus 29213, E. coli MG1655, and A. baumannii 19606 (~1 x 1010 CFUs) was plated on 100-mm plates (E. coli and A. baumannii) or 150-mm plates (S. aureus) of MH agar containing either 128, 64, or 32 µg/mL fabimycin (for gram-negatives) or 0.125, 0.062, and 0.031 µg/mL fabimycin (for S. aureus). Plates were incubated at 37 °C for 48 h and counted for the presence of colony forming units.\n(§8) Glycerol stocks of selected colonies were made, and resistant colonies confirmed by growing on agar plates containing the same concentration of fabimycin that they were generated at.\n(§9) Sequencing of bacterial fabI\n(§10) The FabI gene was amplified by PCR. Fabimycin-resistant colonies were picked and diluted in 100 µL sterile, nuclease-free H2O. PCR reactions were then set up by combining 14 µL H2O, 1 µL 20 µM primer mix, 10 µL template (bacteria solution in H2O), and 25 µL MiFi Mix (Bioline). The reaction was performed on a C1000 Thermal Cycler (Bio-Rad) under the following conditions for 35 cycles: initial denature: 95 °C for 3 min; denature 95 °C for 15 s; anneal: 57 °C for 15 s; extend 72 °C for 30 s; final extend: 72 °C for 3 min. A 10 µL portion of PCR reaction mixture was analyzed by agarose gel electrophoresis to confirm the single 1.4-kilobase pair product. PCR products were purified using a GeneJET PCR Purification Kit (Thermo Fischer Scientific). PCR amplicons were submitted to the Core DNA Sequencing Facility at the University of Illinois at Urbana-Champaign for Sanger sequencing with overlapping internal primers. All primers were obtained from Integrated DNA Technologies.\n(§11) Primers for sequencing of fabI gene in select pathogens: […]\n(§12) Organism Sequence Reference\n(§13) Forward 5’-GGG-GCC-AGC-GTT-TCT-TTT-TC-3‘ Parker, 20203\n(§14) Reverse 5’-AAA-CAT-GGA-GAC-GGT-GCT-GG\n(§15) Forward 5’-GTG-AGA-TCG-GCA-TGA-CAC-AA-3’ Lin, 20179\n(§16) Reverse 5’-CTG-AAG-TCC-GCT-ACC-GTT-AT-3’\n(§17) Compound stability in mammalian plasma\n(§18) Candidate drugs were incubated with plasma and parent drug levels were monitored at various time points (generally t=0, 10, 20, 30, and 60 minutes) to determine the drug’s half-life in the presence of the chosen system. Each drug is tested in duplicate. Compounds were diluted from 10 mM DMSO stocks to 1 µM in a 100 mM pH 7.4 phosphate buffer and incubated at 37 °C with 0.5 mg/mL of human, rat, or mouse plasma (BioreclamationIVT, Baltimore, MD). Time points were collected at 0 min (after addition of drug), 15 min, 30 min, 60 min, and 120 min following quenching with an equal volume of acetonitrile. The supernatant was collected after centrifugation, and the sample analyzed by LC-MS where the percentage of compound remaining is plotted vs time to determine the drug’s half-life.\n(§19) Compound plasma protein binding\n(§20) Candidate drugs were incubated with plasma and parent drug levels are monitored after 4 hours to determine the drug’s free concentration in the presence of the plasma proteins. The standard assay involves equilibrium dialysis, in which compound is allowed to equilibrate between a protein-containing compartment from a protein-free compartment. Each"}, "[3]": {"test_system": "A. baumannii 19606 FabI mutants", "assay": "MIC of fabimycin-resistant mutants", "type": "cell-based", "details": "Acinetobacter baumannii", "procedure": "as §1, §2, §3, §4, §5, §6, §7, §8, §9, §10, §11, §12, §13, §14, §15, §16, §17, §18, §19, §20"}, "E. coli AR-0055": {"test_system": "E. coli AR-0055", "assay": "MIC against infective strain of UTI model", "type": "cell-based", "details": "Escherichia coli, AR0055; extensively drug-resistant, carbapenem-resistant E. coli of the UTI model (AR-0055)", "procedure": "as §1, §2, §3, §4\nNH3: m/z 391.2 → 171.0. Fabimycin: m/z 405.3 → 145.3. Power analysis was not used to determine the number of replicates. Error bars represent the standard error of the mean of three biological replicates. All compounds evaluated in biological assays were ≥95% pure."}, "[4]": {"details": "A. baumannii (n=100) clinical isolates"}},
  "note": "Where two headings read alike, the source gives them in different places.",
  "data": [
    {"smiles": "Cc1c(CN(C)C(=O)/C=C/c2cnc3c(c2)CC[C@H](N)C(=O)N3)oc2ccccc12", "note": "[fabimycin]", "values": [
      {"measurement": "MIC", "setting": "Pseudomonas aeruginosa; P. aeruginosa AR-0229", "value": ">128", "unit": "µg/mL"},
      {"measurement": "MIC", "setting": "Pseudomonas aeruginosa; P. aeruginosa AR-0230", "value": ">128", "unit": "µg/mL"},
      {"measurement": "MIC", "setting": "Pseudomonas aeruginosa; P. aeruginosa AR-0231", "value": ">128", "unit": "µg/mL"},
      {"measurement": "MIC", "setting": "Pseudomonas aeruginosa; P. aeruginosa AR-0233", "value": ">128", "unit": "µg/mL"},
      {"measurement": "MIC", "setting": "Pseudomonas aeruginosa; P. aeruginosa AR-0234", "value": ">128", "unit": "µg/mL"},
      {"measurement": "MIC", "setting": "Pseudomonas aeruginosa; P. aeruginosa AR-0235", "value": ">128", "unit": "µg/mL"},
      {"measurement": "MIC", "setting": "Pseudomonas aeruginosa; P. aeruginosa AR-0609", "value": ">128", "unit": "µg/mL"},
      {"measurement": "MIC", "setting": "Pseudomonas aeruginosa; P. aeruginosa AR-0610", "value": ">128", "unit": "µg/mL"},
      {"measurement": "MIC", "setting": "Pseudomonas aeruginosa; Pseudomonas aeruginosa, ATCC27853, P. aeruginosa ATCC 27853, read-out: MIC", "value": "> 128", "unit": "µg/mL"},
      {"measurement": "MIC", "setting": "Pseudomonas aeruginosa; Pseudomonas aeruginosa, P. aeruginosa AR-0232, read-out: MIC", "value": "> 128", "unit": "µg/mL"},
      {"measurement": "MIC50", "setting": "[1]; [4]", "value": 4, "unit": "µg/mL"},
      {"measurement": "MIC90", "setting": "[1]; [4]", "value": 8, "unit": "µg/mL"},
      {"measurement": "MIC", "setting": "[1]; the 1 pan-resistant strain of the 100 A. baumannii clinical isolates", "value": 1, "unit": "µg/mL"},
      {"measurement": "cytotoxicity against human cell lines", "setting": "HFF-1, A549, HepG2 cells", "value": "less cytotoxic relative to Debio-1452-NH3"},
      {"measurement": "MIC", "setting": "[2]; MG1655, FabI mutation G148S, plated at 16x MIC (32 μg/mL), colonies 2/5, read-out: MIC of mutants", "value": "≥ 128", "unit": "µg/mL"},
      {"measurement": "MIC", "setting": "[2]; MG1655, read-out: MIC of mutants, FabI mutation G148A, plated at 8x MIC (16 μg/mL), colonies 3/5", "value": "32 to 64", "unit": "µg/mL"},
      {"measurement": "MIC", "setting": "[2]; MG1655, read-out: MIC of mutants, FabI mutation G148A, plated at 16x MIC (32 μg/mL), colonies 3/5", "value": 64, "unit": "µg/mL"},
      {"measurement": "MIC", "setting": "[2]; MG1655, read-out: MIC of mutants, FabI mutation G148S, plated at 8x MIC (16 μg/mL), colonies 1/5", "value": 128, "unit": "µg/mL"},
      {"measurement": "MIC", "setting": "[2]; MG1655, read-out: MIC of mutants, FabI mutation M159T, plated at 8x MIC (16 μg/mL), colonies 1/5", "value": 32, "unit": "µg/mL"},
      {"measurement": "MIC", "setting": "[3]; FabI mutation A118T, plated at 16x MIC (32 μg/mL), colonies 4/5, read-out: MIC of mutants", "value": "64 to 128", "unit": "µg/mL"},
      {"measurement": "MIC", "setting": "[3]; FabI mutation N160K, plated at 16x MIC (32 μg/mL), colonies 1/5, read-out: MIC of mutants", "value": 128, "unit": "µg/mL"},
      {"measurement": "MIC", "setting": "[3]; read-out: MIC of mutants, FabI WT, plated at 8x MIC (16 μg/mL), colonies 2/5", "value": "8 to 16", "unit": "µg/mL"},
      {"measurement": "MIC", "setting": "[3]; read-out: MIC of mutants, FabI mutation A118T, plated at 32x MIC (64 μg/mL), colonies 4/5", "value": 64, "unit": "µg/mL"},
      {"measurement": "MIC", "setting": "[3]; read-out: MIC of mutants, FabI mutation A118V, plated at 8x MIC (16 μg/mL), colonies 1/5", "value": 128, "unit": "µg/mL"},
      {"measurement": "MIC", "setting": "[3]; read-out: MIC of mutants, FabI mutation F206L, plated at 8x MIC (16 μg/mL), colonies 1/5", "value": 32, "unit": "µg/mL"},
      {"measurement": "MIC", "setting": "[3]; read-out: MIC of mutants, FabI mutation G151S, plated at 32x MIC (64 μg/mL), colonies 1/5", "value": 64, "unit": "µg/mL"},
      {"measurement": "MIC", "setting": "[3]; read-out: MIC of mutants, FabI mutation M162T, plated at 8x MIC (16 μg/mL), colonies 1/5", "value": 128, "unit": "µg/mL"},
      {"measurement": "MIC", "setting": "E. coli AR-0055", "value": 2, "unit": "µg/mL"}
    ]}
  ]
}
